pIC50: −log10 of the molar value. The source made the active and inactive calls. The rule behind the calls is not given here.
Columns and labels:
[1] = test system: NB-4; assay: Induction of apoptosis in human NB-4 cells assessed as increase in cleaved PARP expression at 10 uM measured after 24 to 48 hrs by Western blot analysis; type: functional, cell-based; conditions: time hrs 24-48
[2] = organism: Homo sapiens; assay: Selectivity ratio of IC50 for full length C-terminal His/FLAG-tagged human HDAC1 expressed in baculovirus expression system to IC50 full length N-terminal GST-tagged human HDAC6 expressed in baculovirus expression system
[3] = test system: NB-4; assay: Cell cycle arrest in human NB-4 cells at 5 to 10 uM measured after 24 to 48 hrs by propidium iodide staining based flow cytometry; type: functional; conditions: dose microM 5-10, time hrs 24-48
[4] = test system: OE33; assay: Antiproliferative activity against human OE33 cells assessed as reduction in cell viability measured after 72 hrs by MTT assay; type: functional, cell-based; conditions: OE33, 72 h
[5] = test system: Histone deacetylase; assay: Inhibition of HDAC in human NB-4 cells assessed as effect on histone acetylation at 10 uM measured after 24 to 48 hrs by Western blot analysis; type: cell-based; conditions: nb-4, 10 µM, time 24-48 hrs
[6] = target: T1, Histone deacetylase 1 (Homo sapiens, UniProt Q13547); assay: Inhibition of full length C-terminal His/FLAG-tagged human HDAC1 expressed in baculovirus expression system using ZMAL as substrate incubated for 90 mins by fluorescence assay
[7] = test system: Ca9-22; assay: Antiproliferative activity against human Ca9-22 cells assessed as reduction in cell viability measured after 48 hrs by alamar blue dye based spectrofluorometry; type: functional; conditions: Ca9-22, 48 h
[8] = test system: KYSE-520 cell line; assay: Antiproliferative activity against human KYSE520 cells assessed as reduction in cell viability measured after 48 hrs by alamar blue dye based spectrofluorometry; type: functional; conditions: KYSE-520, 48 h
[9] = target: T2, Protein deacetylase HDAC6 (Homo sapiens) (UniProt Q9UBN7); assay: Inhibition of HDAC6 in human NB-4 cells assessed as increase in tubulin acetylation at 10 uM measured after 24 to 48 hrs by Western blot analysis; type: cell-based; conditions: time hrs 24-48
T2 sequence (whole entry): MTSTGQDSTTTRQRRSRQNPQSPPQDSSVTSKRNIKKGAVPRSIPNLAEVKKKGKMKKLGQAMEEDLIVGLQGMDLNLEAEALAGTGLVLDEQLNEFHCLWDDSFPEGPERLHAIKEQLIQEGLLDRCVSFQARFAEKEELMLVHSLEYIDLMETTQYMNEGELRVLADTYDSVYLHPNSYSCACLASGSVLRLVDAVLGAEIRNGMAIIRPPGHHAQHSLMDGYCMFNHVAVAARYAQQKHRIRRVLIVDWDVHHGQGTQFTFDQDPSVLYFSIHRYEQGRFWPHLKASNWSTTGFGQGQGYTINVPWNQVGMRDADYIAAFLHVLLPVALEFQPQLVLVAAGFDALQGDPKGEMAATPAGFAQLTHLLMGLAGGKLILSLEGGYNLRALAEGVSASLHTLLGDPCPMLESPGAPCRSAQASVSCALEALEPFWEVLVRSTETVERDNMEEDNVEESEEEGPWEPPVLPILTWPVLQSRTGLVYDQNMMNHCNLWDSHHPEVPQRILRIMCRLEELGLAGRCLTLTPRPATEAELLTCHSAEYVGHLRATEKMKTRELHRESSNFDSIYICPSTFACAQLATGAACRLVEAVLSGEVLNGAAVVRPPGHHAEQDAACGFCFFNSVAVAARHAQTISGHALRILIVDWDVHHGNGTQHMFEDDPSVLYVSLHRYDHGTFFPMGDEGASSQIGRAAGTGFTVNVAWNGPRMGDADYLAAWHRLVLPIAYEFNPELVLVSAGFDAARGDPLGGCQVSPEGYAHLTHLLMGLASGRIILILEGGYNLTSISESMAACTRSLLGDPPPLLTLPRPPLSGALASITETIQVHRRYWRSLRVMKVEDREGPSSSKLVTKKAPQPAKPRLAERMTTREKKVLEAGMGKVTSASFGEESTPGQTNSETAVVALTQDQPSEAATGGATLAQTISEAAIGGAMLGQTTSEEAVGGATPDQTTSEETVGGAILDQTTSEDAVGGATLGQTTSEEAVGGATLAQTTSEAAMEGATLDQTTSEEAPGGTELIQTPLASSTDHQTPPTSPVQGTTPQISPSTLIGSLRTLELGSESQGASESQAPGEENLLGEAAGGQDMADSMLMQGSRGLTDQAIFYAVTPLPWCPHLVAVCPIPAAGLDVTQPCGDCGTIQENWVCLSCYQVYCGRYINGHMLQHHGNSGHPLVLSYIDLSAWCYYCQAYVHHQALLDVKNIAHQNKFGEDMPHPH

[10] = target: T3, Protein deacetylase HDAC6 (Homo sapiens, UniProt Q9UBN7); assay: Inhibition of full length N-terminal GST-tagged human HDAC6 expressed in baculovirus expression system using ZMAL as substrate incubated for 90 mins by fluorescence assay
T3 sequence (Q9UBN7 whole entry): T2 sequence (whole entry)

[11] = Antiproliferative activity against human TR-146 cells assessed as reduction in cell viability measured after 48 hrs by alamar blue dye based spectrofluorometry; type: functional; conditions: TR146, 48 h
[12] = target: T1, Histone deacetylase 1; assay: Inhibition of full length C-terminal His/FLAG-tagged human HDAC1 expressed in baculovirus expression system at 1 uM using ZMAL as substrate incubated for 90 mins by fluorescence assay relative to control
[13] = target: T2, Protein deacetylase HDAC6 (Homo sapiens); assay: Inhibition of full length N-terminal GST-tagged human HDAC6 expressed in baculovirus expression system at 1 uM using ZMAL as substrate incubated for 90 mins by fluorescence assay relative to control
[14] = Antiproliferative activity against human U266B cells assessed as reduction in cell viability measured after 24 to 48 hrs by alamar blue dye based fluorescence assay; type: functional
[15] = target: T4, Histone deacetylase 8 (Homo sapiens, UniProt Q9BY41); assay: Inhibition of human recombinant HDAC8 expressed in Escherichia coli using Fluor de Lys substrate preincubated for 15 mins followed by substrate addition and measured after 60 mins by fluorescence assay
T4 sequence (Q9BY41 whole entry): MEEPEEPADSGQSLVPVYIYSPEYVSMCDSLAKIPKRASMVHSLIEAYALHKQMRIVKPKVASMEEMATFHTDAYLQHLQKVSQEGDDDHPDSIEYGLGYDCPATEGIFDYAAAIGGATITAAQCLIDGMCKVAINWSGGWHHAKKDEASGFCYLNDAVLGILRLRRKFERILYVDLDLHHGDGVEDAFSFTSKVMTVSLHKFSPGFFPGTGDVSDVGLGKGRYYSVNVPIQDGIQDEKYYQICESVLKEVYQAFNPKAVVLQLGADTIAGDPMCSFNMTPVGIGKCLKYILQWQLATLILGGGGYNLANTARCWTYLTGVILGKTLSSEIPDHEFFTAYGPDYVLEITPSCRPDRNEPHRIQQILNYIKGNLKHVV

[16] = test system: U-937; assay: Cell cycle arrest in human U-937 cells assessed as increase in accumulation at pre-G1 phase at 10 uM measured after 48 hrs by propidium iodide staining based flow cytometry; type: functional
[17] = test system: U266B; assay: Induction of apoptosis in human U266B cells at 25 to 50 uM measured after 48 hrs by Annexin-V/propidium iodide staining based flow cytometry; type: functional, cell-based; conditions: dose microM 25-50, time 48.0 hrs
[18] = Cytotoxicity against mouse NIH3T3 cells assessed as reduction in cell viability measured after 24 hrs by neutral red uptake assay; type: cell-based; conditions: read-out: TC50
[19] = Mutagenicity in Salmonella typhimurium TA100 at 24 to 40 uM measured after 90 mins in absence of S9 fraction by Ames test; type: toxicity; conditions: salmonella enterica subsp. enterica serovar typhimurium, s9, 1.5 h, dose 24-40 µM
[20] = target: T2, Protein deacetylase HDAC6 (Homo sapiens); assay: Inhibition of HDAC6 in human U-266 cells assessed as reduction in STAT3 phosphorylation measured after 4 to 48 hrs by immunoblot assay; type: cell-based; conditions: time hrs 4-48
[21] = test system: NB-4; assay: Cell cycle arrest in human NB-4 cells at 5 to 10 uM measured after 48 hrs by propidium iodide staining based flow cytometry; type: functional; conditions: dose microM 5-10, time 48.0 hrs
[22] = target: T2, Protein deacetylase HDAC6 (Homo sapiens); assay: Inhibition of HDAC6 in human MEC1 cells assessed as reduction in STAT3 phosphorylation measured after 30 hrs by immunoblot assay; type: cell-based
[23] = Mutagenicity in Salmonella typhimurium TA100 at 24 to 40 uM measured after 90 mins in presence of S9 fraction by Ames test; type: toxicity, subcellular; conditions: salmonella enterica subsp. enterica serovar typhimurium, s9, 1.5 h, dose 24-40 µM
[24] = Mutagenicity in Salmonella typhimurium TA98 at 8 to 160 uM measured after 90 mins in absence of S9 fraction by Ames test; type: toxicity; conditions: salmonella enterica subsp. enterica serovar typhimurium, s9, 1.5 h, dose 8-160 µM
[25] = target: T2, Protein deacetylase HDAC6 (Homo sapiens); assay: Inhibition of HDAC6 in human MEC1 cells assessed as reduction in STAT3 phosphorylation at 5 to 10 uM measured after 30 hrs by immunoblot assay; type: cell-based; conditions: dose microM 5-10, time 30.0 hrs
[26] = Mutagenicity in Salmonella typhimurium TA98 at 8 to 160 uM measured after 90 mins in presence of S9 fraction by Ames test; type: toxicity, subcellular; conditions: salmonella enterica subsp. enterica serovar typhimurium, s9, 1.5 h, dose 8-160 µM
[27] = organism: Homo sapiens; assay: Selectivity ratio of IC50 for human recombinant HDAC8 expressed in Escherichia coli to IC50 full length N-terminal GST-tagged HDAC6 expressed in baculovirus expression system
[28] = target: T2, Protein deacetylase HDAC6 (Homo sapiens); assay: Inhibition of HDAC6 in human U-266 cells assessed as reduction in STAT3 phosphorylation at 25 uM measured after 4 to 48 hrs by immunoblot assay; type: cell-based; conditions: time hrs 4-48

T1 sequence (Q13547 whole entry): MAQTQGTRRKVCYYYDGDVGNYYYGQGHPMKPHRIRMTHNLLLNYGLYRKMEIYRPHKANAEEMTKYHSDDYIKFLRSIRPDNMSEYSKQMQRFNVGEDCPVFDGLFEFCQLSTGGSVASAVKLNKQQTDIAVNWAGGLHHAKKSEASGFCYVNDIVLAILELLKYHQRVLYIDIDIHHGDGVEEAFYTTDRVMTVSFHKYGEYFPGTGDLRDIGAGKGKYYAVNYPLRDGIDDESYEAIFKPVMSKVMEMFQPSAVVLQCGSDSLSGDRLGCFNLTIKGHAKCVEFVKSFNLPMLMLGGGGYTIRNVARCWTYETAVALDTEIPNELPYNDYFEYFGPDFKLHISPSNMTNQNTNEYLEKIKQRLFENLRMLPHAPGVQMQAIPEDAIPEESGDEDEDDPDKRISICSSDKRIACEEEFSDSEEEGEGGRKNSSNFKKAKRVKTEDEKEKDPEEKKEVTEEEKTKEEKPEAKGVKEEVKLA

| Structure (SMILES) | Ratio IC50 [2] | pIC50 [4] | pIC50 [6] | pIC50 [7] | pIC50 [10] | pIC50 [11] | inhibition [12] | inhibition [13] | pIC50 [15] | other results |
| --- | --- | --- | --- | --- | --- | --- | --- | --- | --- | --- |
| O=C(NO)c1ccc(CC(=O)N2CCC3(CC2)CN(Cc2ccccc2)c2ccccc23)cc1 | 45 | 4.86 | 4.99 | < 3.00 | 6.64 | 4.27 | – | – | – | Activity [1]: Active; Activity [3]: Active; inhibition (INH) [5]: Not Active; pIC50 [8]: 4.47; inhibition [9]: Active |
| O=C(NO)c1ccc(CN2CCC3(CC2)CN(C(=O)c2ccccc2)c2ccccc23)cc1 | 65 | – | 5.00 | < 3.00 | 6.81 | < 3.00 | – | – | – | – |
| CN1CC2(CCN(Cc3ccc(C(=O)NO)cc3)CC2)c2cccc(-c3ccccc3)c21 | – | – | – | – | – | – | 8.5% | 50% | – | – |
| O=C(NO)c1ccc(CN2CCC3(CC2)CN(C(=O)c2ccccc2)c2c(-c4ccccc4)cccc23)cc1 | 10 | – | 5.33 | – | 6.33 | – | – | – | – | – |
| O=C(NO)c1ccc(CNC(=O)N2CCC3(CC2)CN(Cc2ccccc2)c2ccccc23)cc1 | 33 | – | 5.44 | 4.26 | 6.96 | < 3.00 | – | – | 5.61 | pIC50 [14]: 4.23 |
| O=C(NO)c1ccc(COC(=O)N2CCC3(CC2)CN(Cc2ccccc2)c2ccccc23)cc1 | 140 | 4.42 | 5.17 | < 3.00 | 7.31 | 3.88 | – | – | 5.50 | Activity [16]: Active; Activity [1]: Active; pIC50 [14]: 4.69; inhibition (INH) [5]: Not Active; Activity [17]: Active; CC50 at 24 h [18]: 40 µM; inhibition [9]: Active; Activity [19]: Toxic; inhibition [20]: Dose-dependent effect; Activity [21]: Active; inhibition [22]: Dose-dependent effect; Activity [23]: Toxic |
| CN1CC2(CCN(Cc3ccc(C(=O)NO)s3)CC2)c2cccc(-c3ccccc3)c21 | – | – | – | – | – | – | 6.6% | 51.3% | – | – |
| CN1CC2(CCN(Cc3ccc(C(=O)NO)cc3)CC2)c2ccccc21 | 85 | 4.75 | 4.65 | < 3.00 | 6.58 | < 3.00 | – | – | 5.72 | Activity [24]: Non-Toxic; inhibition [25]: Active; CC50 at 24 h [18]: 24 µM; pIC50 [8]: 3.71; Activity [26]: Non-Toxic; Activity [19]: Toxic; Ratio IC50 [27]: 7; Activity [23]: Toxic; inhibition [28]: Active |
| O=C(NO)c1ccc(CN2CCC3(CC2)CN(Cc2ccccc2)c2c(-c4ccccc4)cccc23)cc1 | – | – | – | – | – | – | 2.9% | 29.7% | – | – |
| CC(C)(C)OC(=O)N1CCC2(CC1)CN(Cc1ccc(C(=O)NO)cc1)c1ccccc12 | 95 | – | – | – | – | – | – | – | – | – |

Source: ChEMBL document CHEMBL4725478, “Spiroindoline-Capped Selective HDAC6 Inhibitors: Design, Synthesis, Structural Analysis, and Biological Evaluation” (ACS Med Chem Lett, 2020)
